Measured values from US6258790A, “Antisense modulation of integrin α4 expression” (Isis Pharmaceuticals, Inc., priority 1999, dated 2001).
“And” between values parts separate entries of the source, which are not always exact repeats. Identical values can stand only once.

What was measured:
murine integrin α4 = assay: Antisense inhibition of murine integrin α4 protein expression in IC-21 macrophage cells (flow cytometry, CD49d-PE); assay type: cell-based, mouse; conditions: for % Control (integrin α4 protein) / % Inhib (integrin α4 protein): Table 11
Procedure: Murine IC-21 macrophage cells (American Type Culture Collection, Manassas, Va.) were used for further study. Additional oligonucleotides were designed to target murine integrin α4. These are shown in Table 10; all 2' MOE nucleotides are shown in bold and remaining positions are 2' deoxy. All 2'-MOE cytosines in these compounds are 5' methylcytosines. IC-21 cells were seeded at 5×10^4 cell/well plates two days before assay. […] Wells were triplicates.
Cells (triplicates) were seeded at 2.5×10^4 cells/well in 24-well plates the day before treatment. Oligonucleotide concentrations were 0.2, 1, 5, 25 and 50 nM in 3 ug/ml LIPOFECTIN. Cells were harvested with 2 mM EDTA for 4 minutes, then 1 ml of 2% BSA, 0.2% azide was added per contents of each well.
IC-21 cells were treated with 0.3, 1, 3, 10 and 30 nM oligonucleotide with 3 ug/ml LIPOFECTIN for 4 hours. Cells were incubated for 24 hours, harvested with trypsin, stained with 2 ug/ml CD49d-PE and rat IgG2B as in previous examples.
These compounds were tested for ability to inhibit integrin α4 protein expression.

murine integrin α4 mRNA [1] = assay: Antisense inhibition of murine integrin α4 mRNA expression in P388D (IL-1) macrophage cells (RNA gel, PCR-labeled probe); assay type: cell-based, mouse; conditions: Table 9, averages of duplicate samples
murine integrin α4 mRNA [2] = assay: as above; assay type: cell-based, mouse; conditions: 100 nM; for % Control (murine integrin α4 mRNA) / % Inhib (murine integrin α4 mRNA): Table 8, P388D (IL-1) cells, 3 ug/ml lipofectin; for activity in the mRNA screen: Table 8 assay; for % Control / % Inhib.: Table 9, averages of duplicate samples
Procedure: Oligonucleotides were initially screened in murine P388D (IL-1) macrophage cells (American Type Culture Collection, Manassas Va.) for 4 hours at an oligonucleotide concentration of 100 nM in 3 ug/ml lipofectin.

murine integrin α4 RNA = assay: Dose response effect on integrin α4 RNA levels in IC-21 cells; assay type: cell-based, mouse; conditions: for Percent inhib. (integrin α4 RNA) / Percent of control (integrin α4 RNA): Table 14, duplicate
Procedure: another dose response experiment was done to determine the IC50 of ISIS 16433 for inhibition of integrin α4 RNA. IC-21 cells were tested in duplicate with ISIS 16433 at 6.25, 12.5, 25 or 50 nM with 3 ug/ml LIPOFECTIN.
RNA was purified with Qiagen Qiashredder/RNEASY™ Kit according to manufacturer's directions. Probes were random primed using a prime-a-Gene Kit (Promega, Madison, Wis.).

[3] = tested on: Mouse collagen-induced arthritis (CIA); assay: Mouse collagen-induced arthritis (CIA) model for rheumatoid arthritis; assay type: in vivo, mouse (DBA/1LacJ); conditions: Table 22; positive control, 5 mg/kg daily IP
Source text: A model for human rheumatoid arthritis has been developed wherein mice are immunized with bovine type II collagen. Anderson et al., J. Immunol. 1991 147, 1189-1193, citing Trentham et al., J. Exp. Med 1977, 146, 857. Swelling and inflammation of the joints follows in approximately 3 weeks, with joint distortion and ankylosis typical of rheumatoid arthritis. This model has been used to study the effects of the antisense oligonucleotide 17044, targeted to mouse integrin α4, on arthritis in mice.
DBA/1LacJ mice were obtained from Jackson Laboratory, Bar Harbor, Me. Female mice aged 6 to 8 weeks were used and assigned to groups, ten mice per group. On day 0 mice were immunized at the base of the tail with 100 ug of bovine type II collagen which was emulsified in Complete Freund's Adjuvant (CFA). On day 7, a second booster dose of collagen was administered by the same route. On day 14 the mice were injected subcutaneously with 100 ug of lipopolysaccharide (LPS). Weights were recorded weekly. Mice were inspected daily for the onset of CIA, which is characterized by erythema and edema. Upon the onset of the disease, paw widths and rear ankle widths of affected and unaffected joints were measured three times a week using a constant tension caliper. In addition, limbs were clinically evaluated and graded 0-4, where 0=normal; 1=one digit swollen; 2=inflammation present in more than one digit; 3=joint distortion with or without inflammation; and 4=ankylosis, detected by joint manipulation. The progression of all measurements was recorded to day 50. At the end of the observation period for each mouse, all paws were removed and examined histologically.
The oligonucleotide, the positive control drug (cyclophosphamide, 5 mg/kg), and the vehicle were administered daily to each mouse intraperitoneally (IP) starting on day -3 and continuing for the duration of the study. Each animal received 10 mg/kg as a bolus daily dose.
In a preliminary study, a single 10 mg/kg daily dose of […] was administered from the time of disease induction to the conclusion of the study 50 days later. Arthritis incidence was reduced from 70 to 30% in the ISIS 17044-treated group.

[4] = IC-21 cells, 25 nM, triplicates

15607 (antisense GGCCACTGACCAGAGTTGCA; phosphorothioate DNA, further chemistry not given here) [compound 15607]
% Control (integrin α4 protein) (murine integrin α4; [4]): 82%
% Inhib (integrin α4 protein) (murine integrin α4; [4]): 18%
% Control (murine integrin α4 mRNA [1]; 12.5 nM): 78%
% Inhib. (murine integrin α4 mRNA [1]; 12.5 nM): 22%
% Control (murine integrin α4 mRNA [1]; 25 nM): 67%
% Inhib. (murine integrin α4 mRNA [1]; 25 nM): 33%
% Control (murine integrin α4 mRNA [1]; 50 nM): 50%
% Inhib. (murine integrin α4 mRNA [1]; 50 nM): 50%
% Control (murine integrin α4 mRNA) (murine integrin α4 mRNA [2]): 26%
% Inhib (murine integrin α4 mRNA) (murine integrin α4 mRNA [2]): 74%
activity in the mRNA screen (murine integrin α4 mRNA [2]): most active
% Control (murine integrin α4 mRNA [2]): 55%
% Inhib. (murine integrin α4 mRNA [2]): 45%

15608 (antisense CCGCAGCCATGCGCTCTTGG; phosphorothioate DNA, further chemistry not given here) [compound 15608]
% Control (integrin α4 protein) (murine integrin α4; [4]): 63%
% Inhib (integrin α4 protein) (murine integrin α4; [4]): 37%
% Control (murine integrin α4 mRNA [1]; 12.5 nM): 59%
% Inhib. (murine integrin α4 mRNA [1]; 12.5 nM): 41%
% Control (murine integrin α4 mRNA [1]; 25 nM): 29%
% Inhib. (murine integrin α4 mRNA [1]; 25 nM): 71%
% Control (murine integrin α4 mRNA [1]; 50 nM): 23%
% Inhib. (murine integrin α4 mRNA [1]; 50 nM): 77%
% Control (murine integrin α4 mRNA) (murine integrin α4 mRNA [2]): 16%
% Inhib (murine integrin α4 mRNA) (murine integrin α4 mRNA [2]): 84%
activity in the mRNA screen (murine integrin α4 mRNA [2]): most active
% Control (murine integrin α4 mRNA [2]): 39%
% Inhib. (murine integrin α4 mRNA [2]): 61%

15609 (antisense CACCTCGCTTCCGCAGCCAT; phosphorothioate DNA, further chemistry not given here) [compound 15609]
% Control (integrin α4 protein) (murine integrin α4; [4]): 57%
% Inhib (integrin α4 protein) (murine integrin α4; [4]): 43%
% Control (murine integrin α4 mRNA [1]; 12.5 nM): 54%
% Inhib. (murine integrin α4 mRNA [1]; 12.5 nM): 46%
% Control (murine integrin α4 mRNA [1]; 25 nM): 24%
% Inhib. (murine integrin α4 mRNA [1]; 25 nM): 76%
% Control (murine integrin α4 mRNA [1]; 50 nM): 28%
% Inhib. (murine integrin α4 mRNA [1]; 50 nM): 72%
% Control (murine integrin α4 mRNA) (murine integrin α4 mRNA [2]): 07%
% Inhib (murine integrin α4 mRNA) (murine integrin α4 mRNA [2]): 93%
activity in the mRNA screen (murine integrin α4 mRNA [2]): most active
% Control (murine integrin α4 mRNA [2]): 57%
% Inhib. (murine integrin α4 mRNA [2]): 43%

16433 (CCGCAGCCATGCGCTCTTGG; phosphorothioate, 2'-MOE/deoxy, further chemistry not given here) [compound 16433]
IC50 (murine integrin α4; IC-21 cells): ~1 nM
inhibition of protein levels (murine integrin α4; IC-21 cells, 30 nM): inhibit protein levels to below basal levels
% Control (integrin α4 protein) (murine integrin α4; [4]): 23%
% Inhib (integrin α4 protein) (murine integrin α4; IC-21 cells, 25 nM, triplicates, 0.025 µM): 77% and > 50%
% Inhib. (murine integrin α4; Table 12, 0.2 nM, triplicates): 15%
% of control (murine integrin α4; Table 12, 0.2 nM, triplicates): 85%
% Inhib. (murine integrin α4; Table 12, 1 nM, triplicates): 38%
% of control (murine integrin α4; Table 12, 1 nM, triplicates): 62%
% Inhib. (murine integrin α4; Table 12, 5 nM, triplicates): 63%
% of control (murine integrin α4; Table 12, 5 nM, triplicates): 37%
% Inhib. (murine integrin α4; Table 12, 25 nM, triplicates): 80%
% of control (murine integrin α4; Table 12, 25 nM, triplicates): 20%
% Inhib. (murine integrin α4; Table 12, 50 nM, triplicates): 70%
% of control (murine integrin α4; Table 12, 50 nM, triplicates): 30%
% Inhib. (murine integrin α4; Table 13, 0.3 nM, 24 hours): 11%
% of control (murine integrin α4; Table 13, 0.3 nM, 24 hours): 89%
% Inhib. (murine integrin α4; Table 13, 1 nM, 24 hours): 32%
% of control (murine integrin α4; Table 13, 1 nM, 24 hours): 68%
% Inhib. (murine integrin α4; Table 13, 3 nM, 24 hours): 75%
% of control (murine integrin α4; Table 13, 3 nM, 24 hours): 25%
% Inhib. (murine integrin α4; Table 13, 10 nM, 24 hours): 97%
% of control (murine integrin α4; Table 13, 30 nM, 24 hours): -14%
% Control (murine integrin α4; Table 16, 0.3 nM): 146%
% Control (murine integrin α4; Table 16, 1 nM): 94%
% Control (murine integrin α4; Table 16, 3 nM): 64%
% Inhib. (murine integrin α4; Table 16, 3 nM): 36%
% Control (murine integrin α4; Table 16, 10 nM): 02%
% Inhib. (murine integrin α4; Table 16, 10 nM): 98%
IC50 (murine integrin α4 RNA; IC-21 cells, read-out: IC50 for integrin α4 RNA reduction): ~10 nM
Percent inhib. (integrin α4 RNA) (murine integrin α4 RNA; 6.25 nM): 41%
Percent of control (integrin α4 RNA) (murine integrin α4 RNA; 6.25 nM): 59%
Percent inhib. (integrin α4 RNA) (murine integrin α4 RNA; 12.5 nM): 44%
Percent of control (integrin α4 RNA) (murine integrin α4 RNA; 12.5 nM): 46%
Percent inhib. (integrin α4 RNA) (murine integrin α4 RNA; 25 nM): 72%
Percent of control (integrin α4 RNA) (murine integrin α4 RNA; 25 nM): 28%
Percent inhib. (integrin α4 RNA) (murine integrin α4 RNA; 50 nM): 57%
Percent of control (integrin α4 RNA) (murine integrin α4 RNA; 50 nM): 43%

16478 (GCCGACACCCGTTCGTTCGG; phosphorothioate DNA, further chemistry not given here) [compound 16478]
% Control (integrin α4 protein) (murine integrin α4; [4]): 92%
% of control (murine integrin α4; Table 12, 5 nM, triplicates): 95%
% Inhib. (murine integrin α4; Table 12, 25 nM, triplicates): 13%
% of control (murine integrin α4; Table 12, 25 nM, triplicates): 87%
% Inhib. (murine integrin α4; Table 12, 50 nM, triplicates): 16%
% of control (murine integrin α4; Table 12, 50 nM, triplicates): 84%
% of control (murine integrin α4; Table 13, 0.3 nM, 24 hours): 137%
% of control (murine integrin α4; Table 13, 1 nM, 24 hours): 131%
% of control (murine integrin α4; Table 13, 3 nM, 24 hours): 127%
% of control (murine integrin α4; Table 13, 10 nM, 24 hours): 130%
% of control (murine integrin α4; Table 13, 30 nM, 24 hours): 108%
Percent inhib. (integrin α4 RNA) (murine integrin α4 RNA; 6.25 nM): 25%
Percent of control (integrin α4 RNA) (murine integrin α4 RNA; 6.25 nM): 75%
Percent inhib. (integrin α4 RNA) (murine integrin α4 RNA; 12.5 nM): 40%
Percent of control (integrin α4 RNA) (murine integrin α4 RNA; 12.5 nM): 60%
Percent inhib. (integrin α4 RNA) (murine integrin α4 RNA; 25 nM): 76%
Percent of control (integrin α4 RNA) (murine integrin α4 RNA; 25 nM): 24%
Percent inhib. (integrin α4 RNA) (murine integrin α4 RNA; 50 nM): 74%
Percent of control (integrin α4 RNA) (murine integrin α4 RNA; 50 nM): 26%

O=P1(N(CCCl)CCCl)NCCCO1 (stereo not shown) [Cyclophosphamide, cyclophosphamide, reference compound]
# Paws/Mouse (mean number of affected paws at termination) [3]: 0 ± 0
Severity (total clinical score/total number of mice in group) [3]: 0 ± 0
